Assay results published in publication PMC4503722, “Novel Phenotypic Outcomes Identified for a Public Collection of Approved Drugs from a Publicly Accessible Panel of Assays” (PLoS ONE, 2015).
Where two headings read alike, the source gives them in different places.

What was measured:
[1] = system: nuclear β-catenin in C2C12 cells; assay: cells; type: cell-based; settings: for WntCondMedia_bCatenin C2C12 IC50/EC50: assay number 5
hGSK3b = target: T1, hGSK3b (Homo sapiens, UniProt P49841); assay: Cerep LANCE kinase assay hGSK3b (S1 assay 34); type: biochemical; settings: for hGSK3b LANCE IC50/EC50: assay number 34
T1 construct: purchased Cerep (LANCE kinase assay platform, contract assay)
T1 sequence (P49841 whole entry): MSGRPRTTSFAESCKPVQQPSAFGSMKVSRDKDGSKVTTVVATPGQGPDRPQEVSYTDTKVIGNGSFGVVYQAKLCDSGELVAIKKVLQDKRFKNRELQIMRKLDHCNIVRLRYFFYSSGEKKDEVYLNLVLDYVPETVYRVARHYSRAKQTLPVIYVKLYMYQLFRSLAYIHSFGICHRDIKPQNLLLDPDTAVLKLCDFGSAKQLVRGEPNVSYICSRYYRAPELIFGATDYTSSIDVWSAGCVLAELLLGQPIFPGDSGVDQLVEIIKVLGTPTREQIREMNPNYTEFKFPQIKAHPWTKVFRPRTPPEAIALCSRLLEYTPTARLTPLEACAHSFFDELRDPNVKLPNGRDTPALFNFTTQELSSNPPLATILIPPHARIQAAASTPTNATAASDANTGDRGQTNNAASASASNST

[2] = system: HCT116 cells treated with a GSK3β inhibitor; assay: cells; type: cell-based; settings: for GSK3b inh pretreated_Viability ATP HCT116 IC50/EC50: assay number 26, GSK3b inhibitor pretreated
SW480 = assay: cells; type: cell-based; settings: for Basal_Viability ATP SW480 IC50/EC50: assay number 24
HeLa cells = assay: cells; type: cell-based; settings: for Hela CellCycMod PI 2N IC50/EC50: assay number 14; for Hela CellCycMod PI S Phase IC50/EC50: assay number 15; for Hela CellCycMod PI 4N IC50/EC50: assay number 16; for Hela CellCycMod PI MI IC50/EC50: assay number 17; for Hela CellCycMod PI Cell Number IC50/EC50: assay number 18
HCT116 = assay: cells; type: cell-based; settings: for Basal_Viability ATP HCT116 IC50/EC50: assay number 25
hKDR = target: T2, hKDR (Homo sapiens, UniProt P35968); assay: Cerep LANCE kinase assay hKDR (S1 assay 32); type: biochemical; settings: for hKDR LANCE IC50/EC50: assay number 32
T2 construct: purchased Cerep (LANCE kinase assay platform, contract assay)
T2 sequence (P35968 20-1356): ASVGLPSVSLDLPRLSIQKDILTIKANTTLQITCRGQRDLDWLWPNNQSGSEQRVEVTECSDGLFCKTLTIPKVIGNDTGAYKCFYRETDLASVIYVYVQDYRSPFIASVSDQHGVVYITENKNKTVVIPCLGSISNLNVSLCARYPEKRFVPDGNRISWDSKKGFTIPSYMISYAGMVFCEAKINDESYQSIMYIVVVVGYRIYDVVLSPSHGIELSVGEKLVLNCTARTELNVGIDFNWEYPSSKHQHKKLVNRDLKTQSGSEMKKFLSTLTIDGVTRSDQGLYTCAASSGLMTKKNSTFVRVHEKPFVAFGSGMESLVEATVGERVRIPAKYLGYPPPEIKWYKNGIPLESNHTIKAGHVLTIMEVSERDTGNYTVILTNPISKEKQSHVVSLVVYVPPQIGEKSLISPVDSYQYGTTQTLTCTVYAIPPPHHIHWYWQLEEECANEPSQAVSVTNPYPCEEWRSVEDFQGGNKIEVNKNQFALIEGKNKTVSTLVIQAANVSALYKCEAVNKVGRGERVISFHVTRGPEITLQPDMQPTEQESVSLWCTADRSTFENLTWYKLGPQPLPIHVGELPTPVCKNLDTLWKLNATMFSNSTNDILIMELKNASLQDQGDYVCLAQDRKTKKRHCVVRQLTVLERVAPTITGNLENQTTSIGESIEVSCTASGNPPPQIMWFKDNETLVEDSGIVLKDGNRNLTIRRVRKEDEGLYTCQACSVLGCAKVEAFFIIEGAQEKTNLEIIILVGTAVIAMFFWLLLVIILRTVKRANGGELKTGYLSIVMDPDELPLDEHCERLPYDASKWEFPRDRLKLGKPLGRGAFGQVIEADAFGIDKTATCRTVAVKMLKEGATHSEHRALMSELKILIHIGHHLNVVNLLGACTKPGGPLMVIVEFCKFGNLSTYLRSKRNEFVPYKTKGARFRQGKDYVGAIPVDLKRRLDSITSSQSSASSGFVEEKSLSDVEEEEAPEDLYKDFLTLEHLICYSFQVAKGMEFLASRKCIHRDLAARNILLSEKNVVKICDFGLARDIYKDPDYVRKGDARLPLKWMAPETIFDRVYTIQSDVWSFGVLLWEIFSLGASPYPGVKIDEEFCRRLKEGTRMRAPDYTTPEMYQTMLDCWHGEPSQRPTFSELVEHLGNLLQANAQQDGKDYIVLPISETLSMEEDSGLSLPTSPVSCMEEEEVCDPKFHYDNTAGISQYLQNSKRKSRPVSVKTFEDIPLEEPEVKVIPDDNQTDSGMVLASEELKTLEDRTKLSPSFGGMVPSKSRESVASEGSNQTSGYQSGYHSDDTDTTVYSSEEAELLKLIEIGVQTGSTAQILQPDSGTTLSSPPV

HT-29 = assay: cells; type: cell-based; settings: for Basal_Viability ATP HT-29 IC50/EC50: assay number 28
hFLT3 = target: T3, hFLT3 (Homo sapiens, UniProt P36888); assay: Cerep LANCE kinase assay hFLT3 (S1 assay 35); type: biochemical; settings: for hFLT3 LANCE IC50/EC50: assay number 35
T3 construct: purchased Cerep (LANCE kinase assay platform, contract assay)
T3 sequence (P36888 27-993): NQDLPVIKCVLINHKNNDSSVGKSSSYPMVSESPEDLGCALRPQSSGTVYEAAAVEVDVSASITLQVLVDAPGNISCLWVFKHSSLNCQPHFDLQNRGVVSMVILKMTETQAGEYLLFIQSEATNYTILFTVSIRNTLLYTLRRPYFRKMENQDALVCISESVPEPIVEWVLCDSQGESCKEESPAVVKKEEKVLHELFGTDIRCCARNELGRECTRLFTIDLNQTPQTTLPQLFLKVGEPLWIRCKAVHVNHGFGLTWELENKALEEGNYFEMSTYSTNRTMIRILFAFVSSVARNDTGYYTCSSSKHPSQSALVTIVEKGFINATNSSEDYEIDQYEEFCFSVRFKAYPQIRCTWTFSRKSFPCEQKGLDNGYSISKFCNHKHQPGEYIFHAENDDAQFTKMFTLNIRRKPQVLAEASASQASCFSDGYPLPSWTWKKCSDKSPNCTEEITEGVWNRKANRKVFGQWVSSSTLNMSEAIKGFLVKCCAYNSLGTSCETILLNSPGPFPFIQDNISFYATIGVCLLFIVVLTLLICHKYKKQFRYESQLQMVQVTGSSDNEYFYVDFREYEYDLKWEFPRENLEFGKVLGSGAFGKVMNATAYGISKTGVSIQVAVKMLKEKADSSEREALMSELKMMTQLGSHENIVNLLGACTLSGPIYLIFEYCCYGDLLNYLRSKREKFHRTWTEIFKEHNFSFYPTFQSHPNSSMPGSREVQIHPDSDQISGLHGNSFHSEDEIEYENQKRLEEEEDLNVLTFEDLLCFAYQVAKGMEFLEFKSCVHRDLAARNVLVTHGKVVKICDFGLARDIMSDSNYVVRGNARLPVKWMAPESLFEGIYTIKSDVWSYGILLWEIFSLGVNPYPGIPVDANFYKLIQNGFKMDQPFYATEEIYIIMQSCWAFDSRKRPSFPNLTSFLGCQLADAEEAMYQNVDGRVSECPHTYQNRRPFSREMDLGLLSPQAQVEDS

RKO = assay: cells; type: cell-based; settings: for Basal_Viability ATP RKO IC50/EC50: assay number 29
hp70S6K1 (RPS6KB1) = target: T4, hp70S6K1 (RPS6KB1) (Homo sapiens, UniProt P23443); assay: Cerep LANCE kinase assay hp70S6K1 (S1 assay 31); type: biochemical; settings: for hp70S6K1 LANCE IC50/EC50: assay number 31
T4 construct: purchased Cerep (LANCE kinase assay platform, contract assay)
T4 sequence (P23443 whole entry): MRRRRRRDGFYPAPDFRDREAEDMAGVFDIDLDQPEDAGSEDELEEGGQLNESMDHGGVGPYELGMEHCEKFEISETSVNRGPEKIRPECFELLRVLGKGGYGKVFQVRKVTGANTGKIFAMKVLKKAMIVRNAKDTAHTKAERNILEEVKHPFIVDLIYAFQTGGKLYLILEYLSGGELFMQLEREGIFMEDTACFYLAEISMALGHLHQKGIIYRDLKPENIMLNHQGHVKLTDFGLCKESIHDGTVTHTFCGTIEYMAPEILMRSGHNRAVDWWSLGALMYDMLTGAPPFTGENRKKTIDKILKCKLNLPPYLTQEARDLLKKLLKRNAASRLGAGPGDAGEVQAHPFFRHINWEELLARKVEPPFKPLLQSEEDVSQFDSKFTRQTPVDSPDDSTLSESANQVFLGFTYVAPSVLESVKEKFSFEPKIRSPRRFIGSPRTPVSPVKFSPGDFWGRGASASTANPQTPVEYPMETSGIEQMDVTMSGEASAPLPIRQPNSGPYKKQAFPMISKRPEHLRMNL

hJAK2 = target: T5, hJAK2 (Homo sapiens, UniProt O60674); assay: Cerep LANCE kinase assay hJAK2 (S1 assay 33); type: biochemical; settings: for hJAK2 LANCE IC50/EC50: assay number 33
T5 construct: purchased Cerep (LANCE kinase assay platform, contract assay)
T5 sequence (O60674 whole entry): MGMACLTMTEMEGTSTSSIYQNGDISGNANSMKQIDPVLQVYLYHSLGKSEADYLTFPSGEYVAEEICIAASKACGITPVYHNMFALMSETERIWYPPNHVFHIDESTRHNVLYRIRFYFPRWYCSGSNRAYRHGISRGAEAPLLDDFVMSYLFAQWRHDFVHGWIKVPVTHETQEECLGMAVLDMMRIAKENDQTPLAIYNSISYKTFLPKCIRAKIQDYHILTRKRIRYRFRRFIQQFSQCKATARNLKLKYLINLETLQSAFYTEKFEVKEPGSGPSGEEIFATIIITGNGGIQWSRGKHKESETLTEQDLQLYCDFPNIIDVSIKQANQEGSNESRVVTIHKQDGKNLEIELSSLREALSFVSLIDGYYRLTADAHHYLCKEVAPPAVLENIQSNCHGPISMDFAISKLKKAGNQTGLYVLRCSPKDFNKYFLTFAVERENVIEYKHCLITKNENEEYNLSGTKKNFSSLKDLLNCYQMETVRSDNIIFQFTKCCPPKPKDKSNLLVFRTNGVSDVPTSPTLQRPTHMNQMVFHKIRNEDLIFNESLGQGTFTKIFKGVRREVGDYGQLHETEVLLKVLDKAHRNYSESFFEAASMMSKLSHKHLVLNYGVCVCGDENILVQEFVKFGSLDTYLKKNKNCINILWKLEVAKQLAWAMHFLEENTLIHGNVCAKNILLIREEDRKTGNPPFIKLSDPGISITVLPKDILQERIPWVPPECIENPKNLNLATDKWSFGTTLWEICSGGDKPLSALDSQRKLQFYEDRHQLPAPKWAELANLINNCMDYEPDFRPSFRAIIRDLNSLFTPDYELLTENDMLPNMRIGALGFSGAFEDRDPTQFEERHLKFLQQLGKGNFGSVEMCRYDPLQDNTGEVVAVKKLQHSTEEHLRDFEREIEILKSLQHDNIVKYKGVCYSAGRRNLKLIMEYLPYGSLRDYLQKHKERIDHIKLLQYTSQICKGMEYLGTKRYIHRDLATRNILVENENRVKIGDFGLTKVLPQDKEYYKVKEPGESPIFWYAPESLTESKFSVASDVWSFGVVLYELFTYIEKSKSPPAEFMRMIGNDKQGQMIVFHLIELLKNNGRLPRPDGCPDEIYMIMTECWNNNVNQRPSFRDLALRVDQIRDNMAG

SNU-C1 = assay: cells; type: cell-based; settings: for Basal_Viability ATP SNU-C1 IC50/EC50: assay number 30
Colo320 = assay: cells; type: cell-based; settings: for Basal_Viability ATP Colo 320 IC50/EC50: assay number 27
DLD-1 = assay: cells; type: cell-based; settings: for Basal_Viability ATP DLD-1 IC50/EC50: assay number 23, basal
[3] = system: alkaline phosphatase (ALP) activity in C2C12 cells; type: cell-based; settings: for WntCondMedia_Alk Phos C2C12 IC50/EC50: assay number 6
[4] = system: endothelial tube formation in co-cultures of ECFCs and ADSCs treated with VEGF; assay: cells; type: cell-based, human
[5] = system: ECFC/ADSC co-culture cell nuclei number

| Compound | IC50/EC50, hGSK3b LANCE (assay number 34) (hGSK3b) [nM] | IC50/EC50, hKDR LANCE (assay number 32) (hKDR) [nM] | IC50/EC50, hFLT3 LANCE (assay number 35) (hFLT3) [nM] | IC50/EC50, hp70S6K1 LANCE (assay number 31) (hp70S6K1 (RPS6KB1)) [nM] | IC50/EC50, hJAK2 LANCE (assay number 33) (hJAK2) [nM] | WntCondMedia_bCatenin C2C12 IC50/EC50 ([1]; concentration response) [nM] | hGSK3b LANCE IC50/EC50 (hGSK3b) [nM] | GSK3b inh pretreated_Viability ATP HCT116 IC50/EC50 [2] [nM] | Basal_Viability ATP SW480 IC50/EC50 (SW480; basal) [nM] | Hela CellCycMod PI 2N IC50/EC50 (HeLa cells; 2N) [nM] | Hela CellCycMod PI S Phase IC50/EC50 (HeLa cells) [nM] | Hela CellCycMod PI 4N IC50/EC50 (HeLa cells; 4N) [nM] | Hela CellCycMod PI MI IC50/EC50 (HeLa cells; MI) [nM] | Hela CellCycMod PI Cell Number IC50/EC50 (HeLa cells) [nM] | Basal_Viability ATP HCT116 IC50/EC50 (HCT116; basal) [nM] | hKDR LANCE IC50/EC50 (hKDR) [nM] | Basal_Viability ATP HT-29 IC50/EC50 (HT-29; basal) [nM] | hFLT3 LANCE IC50/EC50 (hFLT3) [nM] | Basal_Viability ATP RKO IC50/EC50 (RKO; basal) [nM] | hp70S6K1 LANCE IC50/EC50 (hp70S6K1 (RPS6KB1)) [nM] | also measured |
| --- | --- | --- | --- | --- | --- | --- | --- | --- | --- | --- | --- | --- | --- | --- | --- | --- | --- | --- | --- | --- | --- |
| O=[N+]([O-])c1ccc(O)c2ncccc12 [NCGC00160664-03] | > 20000 | > 20000 | > 20000 | > 20000 | > 20000 | – | – | – | – | – | – | – | – | – | – | – | – | – | – | – | IC50/EC50, WntCondMedia_bCatenin C2C12 (assay number 5) [1]: > 20000 nM; IC50/EC50, GSK3b inh pretreated_Viability ATP HCT116 (assay number 26) [2]: 375.1 nM; IC50/EC50, Basal_Viability ATP SW480 (assay number 24) (SW480): 604.6 nM; IC50/EC50, Hela CellCycMod PI 2N (assay number 14) (HeLa cells): 1702.8 nM; IC50/EC50, Hela CellCycMod PI 4N (assay number 16) (HeLa cells): > 10000 nM; IC50/EC50, Hela CellCycMod PI Cell Number (assay number 18) (HeLa cells): 295.2 nM; IC50/EC50, Hela CellCycMod PI MI (assay number 17) (HeLa cells): > 10000 nM; IC50/EC50, Hela CellCycMod PI S Phase (assay number 15) (HeLa cells): > 10000 nM; IC50/EC50, Basal_Viability ATP HCT116 (assay number 25) (HCT116): 920.6 nM; IC50/EC50, Basal_Viability ATP HT-29 (assay number 28) (HT-29): > 20000 nM; IC50/EC50, Basal_Viability ATP RKO (assay number 29) (RKO): 710.1 nM; IC50/EC50, Basal_Viability ATP SNU-C1 (assay number 30) (SNU-C1): > 20000 nM; IC50/EC50, Basal_Viability ATP Colo 320 (assay number 27) (Colo320): 683.7 nM; IC50/EC50, Basal_Viability ATP DLD-1 (assay number 23) (DLD-1): 1375 nM; IC50/EC50, WntCondMedia_Alk Phos C2C12 (assay number 6) [3]: 6361.5 nM |
| COC(=O)Nc1nc2ccc(C(=O)C3CC3)cc2[nH]1 [NCGC00262953-01] | 14940 | 15140 | 6140 | > 20000 | > 20000 | – | – | – | – | – | – | – | – | – | – | – | – | – | – | – | IC50/EC50, WntCondMedia_bCatenin C2C12 (assay number 5) ([1]; concentration response): 348.6 nM; IC50/EC50, VEGF_ADSC\ECFC Angio CD31 TubeArea (assay number 2) [4]: 1191.4 nM; IC50/EC50, Basal_Viability ATP SW480 (assay number 24) (SW480; basal): > 20000 nM; IC50/EC50, Hela CellCycMod PI 2N (assay number 14) (HeLa cells; 2N): 417.3 nM; IC50/EC50, Hela CellCycMod PI 4N (assay number 16) (HeLa cells; 4N): 416.4 nM; IC50/EC50, Hela CellCycMod PI Cell Number (assay number 18) (HeLa cells; Cell Number): 296.9 nM; IC50/EC50, Hela CellCycMod PI MI (assay number 17) (HeLa cells; MI): 402.4 nM; IC50/EC50, Hela CellCycMod PI S Phase (assay number 15) (HeLa cells; S Phase): > 10000 nM; IC50/EC50, VEGF_ADSC\ECFC Angio Hoechst NucArea (assay number 3) [5]: > 10000 nM; IC50/EC50, Basal_Viability ATP HCT116 (assay number 25) (HCT116; basal): 173.5 nM; IC50/EC50, Basal_Viability ATP HT-29 (assay number 28) (HT-29; basal): 1682.3 nM; IC50/EC50, Basal_Viability ATP RKO (assay number 29) (RKO; basal): 162.2 nM; IC50/EC50, Basal_Viability ATP SNU-C1 (assay number 30) (SNU-C1; basal): > 20000 nM; IC50/EC50, Basal_Viability ATP Colo 320 (assay number 27) (Colo320; basal): 155.6 nM; IC50/EC50, WntCondMedia_Alk Phos C2C12 (assay number 6) ([3]; concentration response): 683.6 nM |
| COc1cccc2c1C(=O)c1c(O)c3c(c(O)c1C2=O)C[C@@](O)(C(C)=O)C[C@@H]3O[C@H]1C[C@H](N)[C@H](O)[C@H](C)O1 [NCGC00024246-15] | – | – | – | – | – | 369.1 | > 20000 | 55.38 | 1466 | 10.16 | 9604.6 | 46.45 | 373.8 | 8.05 | 50.86 | > 20000 | 648.5 | > 20000 | 118.2 | > 20000 | hJAK2 LANCE IC50/EC50 (hJAK2): > 20000 nM; Basal_Viability ATP SNU-C1 IC50/EC50 (SNU-C1; basal): 337.6 nM; Basal_Viability ATP Colo 320 IC50/EC50 (Colo320; basal): 9247.6 nM; Basal_Viability ATP DLD-1 IC50/EC50 (DLD-1): 188 nM; WntCondMedia_Alk Phos C2C12 IC50/EC50 ([3]; concentration response): 6.1 nM |
| Cc1nc(N)nc(N)c1-c1ccc(Cl)c(Cl)c1 [NCGC00253626-01] | – | – | – | – | – | 50.4 | > 20000 | 58.88 | 512 | > 10000 | > 10000 | > 10000 | > 10000 | 1006.8 | 413.4 | > 20000 | 931.6 | > 20000 | 117.1 | > 20000 | hJAK2 LANCE IC50/EC50 (hJAK2): > 20000 nM; Basal_Viability ATP SNU-C1 IC50/EC50 (SNU-C1; basal): 2165 nM; Basal_Viability ATP Colo 320 IC50/EC50 (Colo320; basal): 2030 nM; Basal_Viability ATP DLD-1 IC50/EC50 (DLD-1): 633.7 nM; WntCondMedia_Alk Phos C2C12 IC50/EC50 ([3]; concentration response): 29.9 nM |
